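Compound exposure: 48 hours, 5 concentrations, 96-well plates. GI50: concentration for 50% inhibition of growth.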 Activity calls are given as the source filed them. No stated cut-off is given here; in the data, active = GI50 up to about 1.1 µM and inactive = higher.
Legend:
Assay in all cases: NCI anticancer screen, dose series, 48 h
786-0 = tested on: 786-0
A498 = tested on: A498
A549 = tested on: A549
CAKI-1 = tested on: CAKI-1
CCRF-CEM = tested on: CCRF-CEM
DLD-1 = tested on: DLD-1
DMS-114 = tested on: DMS-114
DMS-273 = tested on: DMS-273
EKVX = tested on: EKVX
HCT-116 = tested on: HCT-116
HCT-15 = tested on: HCT-15
HL-60 = tested on: HL-60
HOP-18 = tested on: HOP-18
HOP-62 = tested on: HOP-62
HOP-92 = tested on: HOP-92
HT-29 = tested on: HT-29
IGROV-1 = tested on: IGROV-1
K562 = tested on: K562
KM-20L2 = tested on: KM-20L2
KM12 = tested on: KM12
LOX IMVI = tested on: LOX IMVI
LXFL 529 = tested on: LXFL 529
M14 = tested on: M14
M19-MEL = tested on: M19-MEL
MOLT-4 = tested on: MOLT-4
Malme-3M = tested on: Malme-3M
NCI-H23 = tested on: NCI-H23
NCI-H460 = tested on: NCI-H460
NCI-H522 = tested on: NCI-H522
OVCAR-3 = tested on: OVCAR-3
OVCAR-5 = tested on: OVCAR-5
OVCAR-8 = tested on: OVCAR-8
RPMI-8226 = tested on: RPMI-8226
RXF 393 = tested on: RXF 393
SF-268 = tested on: SF-268
SF-295 = tested on: SF-295
SF-539 = tested on: SF-539
SK-MEL-28 = tested on: SK-MEL-28
SK-MEL-2 = tested on: SK-MEL-2
SK-MEL-5 = tested on: SK-MEL-5
SK-OV-3 = tested on: SK-OV-3
SNB-19 = tested on: SNB-19
SNB-78 = tested on: SNB-78
SR = tested on: SR
SW-620 = tested on: SW-620
TK-10 = tested on: TK-10
U-251 = tested on: U-251
UACC-257 = tested on: UACC-257
UACC-62 = tested on: UACC-62
UO-31 = tested on: UO-31
XF498 = tested on: XF498
ACHN = tested on: ACHN
COLO 205 = tested on: COLO 205
HCC 2998 = tested on: HCC 2998
NCI-H226 = tested on: NCI-H226
OVCAR-4 = tested on: OVCAR-4
SN12C = tested on: SN12C
SNB-75 = tested on: SNB-75

SMILES: CC(C)(Oc1ccc(C(=O)c2ccc(Cl)cc2)cc1Cl)C(=O)Nc1c(Cl)cccc1Cl
- GI50 (786-0): > 100 µM (inactive)
- GI50 (A498): > 100 µM (inactive)
- GI50 (A549): > 100 µM (inactive)
- GI50 (CAKI-1): > 100 µM (inactive)
- GI50 (CCRF-CEM): > 100 µM (inactive)
- GI50 (DLD-1): > 100 µM (inactive)
- GI50 (DMS-114): 8.75 µM (inactive)
- GI50 (DMS-273): > 100 µM (inactive)
- GI50 (EKVX): > 100 µM (inactive)
- GI50 (HCT-116): > 100 µM (inactive)
- GI50 (HCT-15): > 100 µM
- GI50 (HL-60): 10.7 µM (inactive)
- GI50 (HOP-18): > 100 µM (inactive)
- GI50 (HOP-62): > 100 µM (inactive)
- GI50 (HOP-92): > 100 µM (inactive)
- GI50 (HT-29): > 100 µM (inactive)
- GI50 (IGROV-1): > 100 µM (inactive)
- GI50 (K562): 5.64 µM (inactive)
- GI50 (KM-20L2): > 100 µM (inactive)
- GI50 (KM12): > 100 µM (inactive)
- GI50 (LOX IMVI): > 100 µM (inactive)
- GI50 (LXFL 529): > 100 µM (inactive)
- GI50 (M14): > 100 µM (inactive)
- GI50 (M19-MEL): > 100 µM (inactive)
- GI50 (MOLT-4): 67.9 µM (inactive)
- GI50 (Malme-3M): > 100 µM (inactive)
- GI50 (NCI-H23): > 100 µM (inactive)
- GI50 (NCI-H460): 5.77 µM (inactive)
- GI50 (NCI-H522): 12.3 µM (inactive)
- GI50 (OVCAR-3): > 100 µM (inactive)
- GI50 (OVCAR-5): > 100 µM (inactive)
- GI50 (OVCAR-8): > 100 µM (inactive)
- GI50 (RPMI-8226): > 100 µM (inactive)
- GI50 (RXF 393): < 0.01 µM (active)
- GI50 (SF-268): > 100 µM (inactive)
- GI50 (SF-295): > 100 µM (inactive)
- GI50 (SF-539): > 100 µM (inactive)
- GI50 (SK-MEL-28): > 100 µM (inactive)
- GI50 (SK-MEL-2): > 100 µM (inactive)
- GI50 (SK-MEL-5): 20 µM (inactive)
- GI50 (SK-OV-3): > 100 µM (inactive)
- GI50 (SNB-19): > 100 µM (inactive)
- GI50 (SNB-78): > 100 µM (inactive)
- GI50 (SR): 9.75 µM (inactive)
- GI50 (SW-620): > 100 µM (inactive)
- GI50 (TK-10): > 100 µM (inactive)
- GI50 (U-251): > 100 µM (inactive)
- GI50 (UACC-257): > 100 µM (inactive)
- GI50 (UACC-62): > 100 µM (inactive)
- GI50 (UO-31): 23 µM (inactive)
- GI50 (XF498): > 100 µM (inactive)

SMILES: COc1cc(C2c3cc4c(cc3[C@@H](Nc3ccc(N(C)C)cc3)[C@H]3COC(=O)C23)OCO4)cc(OC)c1O (stereo partly drawn)
- GI50 (786-0): 0.228 µM (active)
- GI50 (A498): 0.551 µM (active)
- GI50 (A549): 0.0871 µM (active)
- GI50 (ACHN): 0.049 µM (active)
- GI50 (CAKI-1): 0.141 µM (active)
- GI50 (CCRF-CEM): 0.153 µM (active)
- GI50 (COLO 205): 1.85 µM (inactive)
- GI50 (DLD-1): 1.73 µM (inactive)
- GI50 (DMS-114): 0.42 µM (active)
- GI50 (DMS-273): 0.116 µM (active)
- GI50 (EKVX): 0.456 µM (active)
- GI50 (HCC 2998): 1.27 µM (inactive)
- GI50 (HCT-116): 0.582 µM (active)
- GI50 (HCT-15): 0.838 µM
- GI50 (HL-60): 0.193 µM (active)
- GI50 (HOP-18): 1.85 µM (inactive)
- GI50 (HOP-62): 0.103 µM (active)
- GI50 (HOP-92): 0.36 µM (active)
- GI50 (HT-29): 1.13 µM (inactive)
- GI50 (IGROV-1): 3.56 µM (inactive)
- GI50 (K562): 0.537 µM (active)
- GI50 (KM-20L2): 0.708 µM (active)
- GI50 (KM12): 1.24 µM (inactive)
- GI50 (LOX IMVI): 0.817 µM (active)
- GI50 (LXFL 529): 2.15 µM (inactive)
- GI50 (M14): 0.327 µM (active)
- GI50 (M19-MEL): 0.839 µM (active)
- GI50 (MOLT-4): 0.108 µM (active)
- GI50 (Malme-3M): 1.41 µM (inactive)
- GI50 (NCI-H226): 0.0545 µM (active)
- GI50 (NCI-H23): 0.189 µM (active)
- GI50 (NCI-H460): 0.0214 µM (active)
- GI50 (NCI-H522): 0.873 µM (active)
- GI50 (OVCAR-3): 8.04 µM (inactive)
- GI50 (OVCAR-4): 9.35 µM (inactive)
- GI50 (OVCAR-5): 0.818 µM (active)
- GI50 (OVCAR-8): 0.587 µM (active)
- GI50 (RXF 393): 0.951 µM (active)
- GI50 (SF-268): 0.351 µM (active)
- GI50 (SF-295): 0.122 µM (active)
- GI50 (SF-539): 0.316 µM (active)
- GI50 (SK-MEL-28): 3.79 µM (inactive)
- GI50 (SK-MEL-2): 2.37 µM (inactive)
- GI50 (SK-MEL-5): 0.873 µM (active)
- GI50 (SK-OV-3): 0.212 µM (active)
- GI50 (SN12C): 0.34 µM (active)
- GI50 (SNB-19): 0.273 µM (active)
- GI50 (SNB-75): 0.324 µM (active)
- GI50 (SNB-78): 4.31 µM (inactive)
- GI50 (SR): 0.0127 µM (active)
- GI50 (SW-620): 0.807 µM (active)
- GI50 (TK-10): 2.64 µM (inactive)
- GI50 (U-251): 0.149 µM (active)
- GI50 (UACC-257): 2.23 µM (inactive)
- GI50 (UACC-62): 0.232 µM (active)
- GI50 (UO-31): 0.607 µM (active)
- GI50 (XF498): 0.687 µM (active)
